Results: patent publication US20130273176A1, “METHODS AND COMPOSITIONS USEFUL FOR PROMOTING SLEEP IN ANIMALS” (Nestec SA, priority 2010, published 2013)

What was measured:
senior dogs [1] = assay: Actiware sleep analysis, Example 2 (melatonin only, cross-over, AM or PM); assay type: in vivo, dog; conditions: for Nap Duration / Total Daytime Naps / Total Daytime Sleep Minutes / Total Night-Time Awakenings / Total Night-Time Wake Minutes: melatonin only, mean +/- std error
Method: Using a cross-over design, all animals were administered a control placebo and a treatment supplement containing melatonin. The animals were senior animals, dogs greater than 10 years of age. There were 4 males and 4 females in each group. For the intervention phases (phases 2 and 4), all animals were administered melatonin in the AM or PM. During the control and cross-over phases (phase 1 and 3, respectively) the animals were administered a placebo comprising methylcellulose contained in a gel capsule in the AM or PM, as appropriate.
Each phase lasted 35 days. Starting on day 29 of each phase, the animals locomotor behavioral activity was monitored for 4 consecutive days.
The placebo consisted of the carrier (methylcellulose) contained in a gel capsule and was provided during the control phases (Phases 1 and 3) either with the AM or PM feeding, as appropriate to complement the supplement time (luring the following intervention phase. For example, placebo in AM during phase 1, then supplement in AM during phase 2.
For phase 2, the first supplement treatment phase, the animals were given supplements of melatonin. Further, for half of the animals, the supplements were in the morning with the AM feeding and half were given in the evening with the PM feeding. Thus, of the 4 males, 2 were administered the melatonin in the morning and two in the evening.
During phase 3, the second control phase, delivery of the methylcellulose in a gel capsule was provided either with the AM or PM feeding, as appropriate to cross-over the treatment from phase 1-2.
For phase 4, the second supplement treatment phase, the procedure was exactly the same as phase 2, except that for a given animal the supplementation time was switched from phase 2. Thus, if male was administered melatonin in the morning with the AM feeding in phase 2, the male was administered melatonin in the evening with the PM feeding in phase 4.
Data analysis of periods indicated no period effect. Therefore, all control data were compiled into a single dataset, as well as all treatment data for each supplement time (AM or PM). Statistical analysis was based on AM control vs. AM treatment, and PM control vs. PM Treatment.
Twenty-four hour activity rhythms were assessed for 5 consecutive days and 5 nights for Example 1 or 3 consecutive days and 4 nights for Example 2 using the Actiwatch method (Mini-Mitter® Actiwatch-16® activity monitoring system, Respironics Co. Inc., Bend, Oreg.). The Actiwatch® was placed inside a specially designed animal case and attached to a collar around the dog's neck. The dogs were allowed to follow their usual patterns of activity, test, exercise, and feeding.
The Actiware® software was used to generate total daily, light phase (12-h daytime: 7 am-7 pm), and dark phase (12-h night-time: 7 PM-7 AM) total sleep or wake minutes. Light phase naps represent sleep bouts occurring during the 12-h light phase interval. Dark phase wake bouts relied awake activity during the night-time sleep interval and not the 12-h dark phase interval. Total number of bouts and bout duration were determined for both light phase naps and dark phase awakenings.
The total number of sleep minutes recorded during the daytime phase of Example 2 was used to calculate the number of nap bouts and average nap duration during this same period.

senior dogs [2] = assay: Actiwatch activity recording, Example 2 (melatonin only, cross-over, AM or PM); assay type: in vivo, dog; conditions: for Total Daytime Activity Counts: melatonin only, mean +/- std error
Method: Using a cross-over design, all animals were administered a control placebo and a treatment supplement containing melatonin. The animals were senior animals, dogs greater than 10 years of age. There were 4 males and 4 females in each group. For the intervention phases (phases 2 and 4), all animals were administered melatonin in the AM or PM. During the control and cross-over phases (phase 1 and 3, respectively) the animals were administered a placebo comprising methylcellulose contained in a gel capsule in the AM or PM, as appropriate. Each phase lasted 35 days. Starting on day 29 of each phase, the animals locomotor behavioral activity was monitored for 4 consecutive days. The placebo consisted of the carrier (methylcellulose) contained in a gel capsule and was provided during the control phases (Phases 1 and 3) either with the AM or PM feeding, as appropriate to complement the supplement time (luring the following intervention phase. For example, placebo in AM during phase 1, then supplement in AM during phase 2. For phase 2, the first supplement treatment phase, the animals were given supplements of melatonin. Further, for half of the animals, the supplements were in the morning with the AM feeding and half were given in the evening with the PM feeding. Thus, of the 4 males, 2 were administered the melatonin in the morning and two in the evening. During phase 3, the second control phase, delivery of the methylcellulose in a gel capsule was provided either with the AM or PM feeding, as appropriate to cross-over the treatment from phase 1-2. For phase 4, the second supplement treatment phase, the procedure was exactly the same as phase 2, except that for a given animal the supplementation time was switched from phase 2. Thus, if male was administered melatonin in the morning with the AM feeding in phase 2, the male was administered melatonin in the evening with the PM feeding in phase 4. Data analysis of periods indicated no period effect. Therefore, all control data were compiled into a single dataset, as well as all treatment data for each supplement time (AM or PM). Statistical analysis was based on AM control vs. AM treatment, and PM control vs. PM Treatment. Twenty-four hour activity rhythms were assessed for 5 consecutive days and 5 nights for Example 1 or 3 consecutive days and 4 nights for Example 2 using the Actiwatch method (Mini-Mitter® Actiwatch-16® activity monitoring system, Respironics Co. Inc., Bend, Oreg.). The Actiwatch® was placed inside a specially designed animal case and attached to a collar around the dog's neck. The dogs were allowed to follow their usual patterns of activity, test, exercise, and feeding. Daytime activity was recorded to represent the 12 hour light phase from 7 am to 7 pm. […]

COc1ccc2[nH]cc(CCNC(C)=O)c2c1 [Melatonin Only, melatonin]
Nap Duration (senior dogs [1]; AM Supplement): 4.2 +/− 0.7 | Total Daytime Naps (senior dogs [1]; AM Supplement): 58.3 +/− 3.5 | Total Daytime Sleep Minutes (senior dogs [1]; AM Supplement): 240 ± 32 min | Total Night-Time Awakenings (senior dogs [1]; AM Supplement): 69.5 +/− 6.9 | Total Night-Time Wake Minutes (senior dogs [1]; AM Supplement): 198 ± 35 min | Nap Duration (senior dogs [1]; PM Supplement): 6.4 +/− 1.2 | Total Daytime Naps (senior dogs [1]; PM Supplement): 45.5 +/− 4.7 | Total Daytime Sleep Minutes (senior dogs [1]; PM Supplement): 264 ± 28 min | Total Night-Time Awakenings (senior dogs [1]; PM Supplement): 52.6 +/− 5.7 | Total Night-Time Wake Minutes (senior dogs [1]; PM Supplement): 209 ± 37 min | increase in total daytime sleep minutes compared to dogs on the control food (senior dogs [1]; PM, melatonin 1 mg/kg BW, 35 days, not statistically significant (p=0.25)): 21% | decrease in total number of awakenings during the sleep phase compared to the control group (senior dogs [1]; melatonin alone with the PM meal): 22% | decrease in average nap length compared to control group (senior dogs [1]; melatonin with the AM meal): 31% | increase in the number of awakenings compared to control group (senior dogs [1]; melatonin with the AM meal): 16.6% | increase in the number of naps compared to control group (senior dogs [1]; melatonin with the AM meal): 10% | increase in night-time wake minutes compared to control group (senior dogs [1]; melatonin with the AM meal, not different from control data): 41% | total number of naps during the 12 hour daytime phase compared to the control group (senior dogs [1]; melatonin with the PM meal): did not change at all | increase in average nap duration compared to the control group (senior dogs [1]; melatonin with the PM meal, 12 hour daytime phase): 18.5% | decrease in total night-time wake minutes compared to the control group (senior dogs [1]; melatonin with the PM meal, not statistically significant): 18.6% | Total Daytime Activity Counts (senior dogs [2]; AM Supplement): 115,705 +/− 23,249 | Total Daytime Activity Counts (senior dogs [2]; PM Supplement, 1 mg/kg BW, 35 days): 114,816 +/− 34,282 | reduction in total daytime activity counts compared to dogs on the control food (senior dogs [2]; PM, melatonin 1 mg/kg BW, 35 days, not statistically significant): 16% | daytime activity effect versus placebo group (senior dogs [2]; melatonin supplemented in the AM): not significantly different from the placebo group
